The values below come from PMC3664191 (Bioorganic & medicinal chemistry letters, 2013).

The target of series [1] is Clk4 (Homo sapiens, UniProt Q9HAZ1). Put plainly: Kinase Glo. It is filed as biochemical. The settings on record: matrix library, Kinase Glo (Promega) assay, Figure 4. (In Kinase-Glo more light means more ATP remaining.)
In series [2] the test system is DRAK. Put plainly: DiscoverRX KINOMEscan binding. The note with it: 10 μM.
In series [3] the target is CSNK1E (Homo sapiens, UniProt P49674). Nature of the series: DiscoverRX KINOMEscan binding. The settings on record: read-out: % control CSNK1E.
Chain of CSNK1E (P49674 whole entry): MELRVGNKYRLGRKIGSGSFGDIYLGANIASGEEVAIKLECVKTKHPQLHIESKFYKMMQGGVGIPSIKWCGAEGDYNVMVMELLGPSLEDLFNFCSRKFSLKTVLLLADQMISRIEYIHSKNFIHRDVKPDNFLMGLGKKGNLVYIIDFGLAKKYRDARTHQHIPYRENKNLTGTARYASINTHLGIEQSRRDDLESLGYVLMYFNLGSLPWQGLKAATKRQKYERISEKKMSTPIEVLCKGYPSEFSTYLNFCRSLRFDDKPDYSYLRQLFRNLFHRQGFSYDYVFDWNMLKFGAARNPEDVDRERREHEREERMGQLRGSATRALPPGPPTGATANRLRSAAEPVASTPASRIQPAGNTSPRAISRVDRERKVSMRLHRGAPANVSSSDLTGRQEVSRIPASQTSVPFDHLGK
The target of series [4] is dopamine transporter (DAT) (Homo sapiens, UniProt Q01959). Nature of the series: Ricerca LeadProfiling off-target screen. The format is binding. The note with it: read-out: inhibition or stimulation, dopamine transporter (DAT).
Chain of dopamine transporter (DAT) (Q01959 whole entry): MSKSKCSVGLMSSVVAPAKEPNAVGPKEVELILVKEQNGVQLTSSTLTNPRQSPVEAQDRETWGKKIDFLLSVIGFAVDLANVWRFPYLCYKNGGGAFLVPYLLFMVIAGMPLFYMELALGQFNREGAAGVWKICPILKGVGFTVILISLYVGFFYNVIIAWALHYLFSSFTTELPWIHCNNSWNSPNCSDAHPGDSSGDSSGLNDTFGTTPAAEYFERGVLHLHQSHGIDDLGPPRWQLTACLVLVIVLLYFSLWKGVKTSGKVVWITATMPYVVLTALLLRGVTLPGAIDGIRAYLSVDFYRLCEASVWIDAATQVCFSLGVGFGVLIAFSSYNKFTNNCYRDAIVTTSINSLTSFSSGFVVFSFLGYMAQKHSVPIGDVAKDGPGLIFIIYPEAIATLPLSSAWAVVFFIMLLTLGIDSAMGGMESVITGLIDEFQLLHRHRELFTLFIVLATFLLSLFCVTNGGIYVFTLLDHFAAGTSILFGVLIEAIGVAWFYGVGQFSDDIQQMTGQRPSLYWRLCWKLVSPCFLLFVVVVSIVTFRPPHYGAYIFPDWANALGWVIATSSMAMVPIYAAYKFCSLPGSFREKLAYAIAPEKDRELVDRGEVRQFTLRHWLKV
Series [5] in a line: Cell permeability.
For series [6], the target named is norepinephrine transporter (NET) (Homo sapiens, UniProt P23975). Nature of the series: Ricerca LeadProfiling off-target screen. It is filed as binding. The settings on record: read-out: inhibition or stimulation, norepinephrine transporter (NET).
Chain of norepinephrine transporter (NET) (P23975 whole entry): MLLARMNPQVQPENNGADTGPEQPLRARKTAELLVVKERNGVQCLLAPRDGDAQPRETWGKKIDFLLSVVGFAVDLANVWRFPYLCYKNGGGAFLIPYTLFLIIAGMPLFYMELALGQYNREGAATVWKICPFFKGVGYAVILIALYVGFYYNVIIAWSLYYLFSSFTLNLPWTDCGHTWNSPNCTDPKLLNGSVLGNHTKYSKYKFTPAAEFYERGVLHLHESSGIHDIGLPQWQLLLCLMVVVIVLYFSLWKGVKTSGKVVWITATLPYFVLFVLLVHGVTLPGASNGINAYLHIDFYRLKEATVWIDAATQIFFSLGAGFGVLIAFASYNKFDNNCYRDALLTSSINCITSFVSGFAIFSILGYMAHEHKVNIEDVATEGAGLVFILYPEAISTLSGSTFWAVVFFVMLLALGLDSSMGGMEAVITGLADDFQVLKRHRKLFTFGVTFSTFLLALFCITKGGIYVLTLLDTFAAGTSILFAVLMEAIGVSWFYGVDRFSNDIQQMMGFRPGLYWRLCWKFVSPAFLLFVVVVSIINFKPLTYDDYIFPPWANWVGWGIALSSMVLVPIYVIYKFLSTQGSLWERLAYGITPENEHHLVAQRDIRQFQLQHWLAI
For series [7] the following is noted: phosphate buffered saline (PBS) and assay media.
The nature of series [8]: Plasma stability, human.
The target of series [9] is T1, adrenergic α2A (Homo sapiens, UniProt P08913).
T1 sequence (P08913 1-465): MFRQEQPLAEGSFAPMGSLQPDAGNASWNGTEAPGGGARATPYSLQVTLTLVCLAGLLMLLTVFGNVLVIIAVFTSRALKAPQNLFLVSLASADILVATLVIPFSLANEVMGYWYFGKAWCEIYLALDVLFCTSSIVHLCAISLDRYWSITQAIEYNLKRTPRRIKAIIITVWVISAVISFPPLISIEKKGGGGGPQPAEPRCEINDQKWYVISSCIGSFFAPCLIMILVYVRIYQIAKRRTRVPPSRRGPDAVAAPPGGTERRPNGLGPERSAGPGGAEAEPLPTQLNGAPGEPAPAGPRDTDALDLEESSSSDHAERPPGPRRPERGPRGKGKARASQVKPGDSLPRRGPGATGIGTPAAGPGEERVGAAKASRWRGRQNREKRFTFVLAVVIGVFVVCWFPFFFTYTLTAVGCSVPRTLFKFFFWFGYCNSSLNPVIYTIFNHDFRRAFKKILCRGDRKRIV
Put plainly: Ricerca LeadProfiling off-target screen. The note with it: read-out: inhibition or stimulation, adrenergic α2A.

Series [10] is described as follows: Plasma stability, mouse.
Series [11] concerns the target Clk3 (Homo sapiens, UniProt P49761). The note with it: cited from earlier work.

As a reminder, the inhibition is the percentage by which the read-out fell short of the control. What is called IC50 is the point on the concentration scale where inhibition reaches its midpoint.

Chain of Clk4 (Q9HAZ1 whole entry, species assumed): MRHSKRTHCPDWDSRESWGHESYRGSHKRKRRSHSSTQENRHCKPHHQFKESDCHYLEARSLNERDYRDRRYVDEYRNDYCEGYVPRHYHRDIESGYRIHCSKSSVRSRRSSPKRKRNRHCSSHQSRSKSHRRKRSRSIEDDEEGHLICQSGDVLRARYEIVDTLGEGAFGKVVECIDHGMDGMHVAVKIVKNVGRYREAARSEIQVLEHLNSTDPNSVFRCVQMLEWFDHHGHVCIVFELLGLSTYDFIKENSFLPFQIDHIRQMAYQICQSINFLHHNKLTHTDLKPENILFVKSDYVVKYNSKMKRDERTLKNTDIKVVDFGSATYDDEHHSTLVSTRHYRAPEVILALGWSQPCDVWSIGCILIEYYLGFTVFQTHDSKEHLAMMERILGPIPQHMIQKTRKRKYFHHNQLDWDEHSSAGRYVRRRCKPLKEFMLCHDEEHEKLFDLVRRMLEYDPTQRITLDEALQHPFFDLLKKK
Chain of Clk3 (P49761 whole entry): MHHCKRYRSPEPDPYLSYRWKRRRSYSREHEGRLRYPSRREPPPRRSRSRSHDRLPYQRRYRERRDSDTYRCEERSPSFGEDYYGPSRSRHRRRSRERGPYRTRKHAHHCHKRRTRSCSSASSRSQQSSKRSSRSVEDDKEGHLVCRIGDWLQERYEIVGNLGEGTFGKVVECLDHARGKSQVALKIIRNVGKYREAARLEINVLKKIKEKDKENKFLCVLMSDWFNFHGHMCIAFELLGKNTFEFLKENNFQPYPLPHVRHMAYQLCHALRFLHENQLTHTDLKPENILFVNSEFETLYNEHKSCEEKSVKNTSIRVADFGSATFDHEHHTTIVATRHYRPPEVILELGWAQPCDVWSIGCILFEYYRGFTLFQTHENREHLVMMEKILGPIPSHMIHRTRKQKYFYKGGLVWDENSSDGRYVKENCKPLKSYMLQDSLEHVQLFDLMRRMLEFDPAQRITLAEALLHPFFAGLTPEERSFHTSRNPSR

`Clc1ccc(CNc2ccnc(-c3ccc4c(c3)OCO4)n2)cc1Cl` [Compound A2]: the “activity against Clk4” value in [1] was “active”.
The same measure, in the same setting: under `COc1ccc(-c2nccc(NCc3ccc(Cl)c(Cl)c3)n2)cc1` [Compound G2] stands “active”; under `COc1cccc(-c2nccc(NCc3ccc(Cl)c(Cl)c3)n2)c1` [Compound C2], “active”.
With `Clc1ccc(CNc2nccc(-c3ccc4[nH]ncc4c3)n2)cc1Cl` [Compound 22], the “% control DRAK” value in series [2] is given as less than 10 % control. Also, the remaining binding at 10 µM in series [3] is less than 10%.
Consider `Clc1cc(Cl)cc(CNc2ncncc2-c2ccc3c(c2)OCO3)c1` [Compound 35], for which the inhibition at 10 µM in series [4], in series [6] and in series [9] was greater than 50% in each case. Besides, the “cell permeability” value in series [5] is reported as “moderately cell permeable”. Besides, in series [7], the “solubility” value was “limited”. Moreover, the “plasma stability” value in [8] and in series [10] was “stable” each time.
In the case of `O=C1NC(Nc2ccccc2)=N/C1=C\c1ccc2c(c1)OCO2` [Leucettine L41], the IC50 in [11] (read-out: Clk3 IC50) is 4.5 µM.
In the case of `Clc1ccc(CNc2ccnc(-c3ccc4c(c3)OCO4)n2)cc1` [Compound A4], in [1], the “activity against Clk4” value was “active”.
Take `CCN1/C(=C/C(C)=O)Sc2ccc(OC)cc21` [TG003]: the “Clk3 activity” value in [11] is “inactive”.
For `COc1ccc(-c2nccc(NCc3ccc(Cl)cc3)n2)cc1` [Compound G4], in series [1], the “activity against Clk4” value is “active”.
